Source: US20260285850A1, “SUBSTITUTED OXAZOLIDINONES AND IMIDAZOLINONES AS HERBICIDES” (FMC CORPORATION, priority 2023, published 2026)

Columns and labels:
Type in all cases: in vivo
[1] = system: ryegrass, Italian (italian ryegrass, Lolium multiflorum); assay: Test A postemergence application, visual injury rating 0-100; conditions: 10 days
Procedure, shortened: (§1)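 Grow plants in loam soil blended with sand. Apply formulated compound (non-phytotoxic solvent, surfactant) as a directed soil spray before emergence, or to plants at the one- to two-leaf stage after emergence. Hold in greenhouse 10 days, then rate injury visually versus untreated controls on a 0-100 scale.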

[2] = system: oat, wild (wild oat, Avena fatua); assay: as above; conditions: 10 days
Procedure, shortened: as §1

[3] = system: corn (Zea mays); assay: as above; conditions: 10 days
Procedure, shortened: as §1

[4] = system: kochia (Bassia scoparia); assay: as above; conditions: 10 days
Procedure, shortened: as §1

[5] = system: blackgrass (Alopecurus myosuroides); assay: as above; conditions: 10 days
Procedure, shortened: as §1

[6] = system: ragweed (common ragweed, Ambrosia artemisiifolia); assay: as above; conditions: 10 days
Procedure, shortened: as §1

[7] = system: galium (catchweed bedstraw, Galium aparine); assay: as above; conditions: 10 days
Procedure, shortened: as §1

[8] = system: horseweed (Erigeron canadensis); assay: as above; conditions: 10 days
Procedure, shortened: as §1

[9] = system: soybean (Glycine max); assay: as above; conditions: 10 days
Procedure, shortened: as §1

[10] = system: green foxtail (Setaria viridis); assay: as above; conditions: 10 days
Procedure, shortened: as §1

[11] = system: wheat (Triticum aestivum); assay: as above; conditions: 10 days
Procedure, shortened: as §1

[12] = system: palmer (palmer amaranth, palmer pigweed, Amaranthus palmeri); assay: as above; conditions: 10 days
Procedure, shortened: as §1

[13] = system: barnyardgrass (Echinochloa crus-galli); assay: as above; conditions: 10 days
Procedure, shortened: as §1

[14] = system: rice (Oryza sativa); assay: Test B flooded paddy test, visual plant response rating 0-100; conditions: 250 g ai/ha, Flood, applied to paddy water, evaluated after 13 days
Procedure, shortened: (§2)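 Paddy-water application: test compounds went directly into water flooded 3 cm above the soil surface, with plants at 2 leaves. After a 13-day greenhouse period, responses were judged by eye relative to controls; a dash marks an untested entry.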

[15] = system: ducksalad (Heteranthera limosa); assay: as above; conditions: 250 g ai/ha, Flood, applied to paddy water, evaluated after 13 days
Procedure, shortened: as §2

[16] = system: barnyardgrass (Echinochloa crusgalli); assay: as above; conditions: 250 g ai/ha, Flood, applied to paddy water, evaluated after 13 days
Procedure, shortened: as §2

[17] = system: sedge, umbrella (small-flower umbrella sedge, Cyperus difformis); assay: as above; conditions: 250 g ai/ha, Flood, applied to paddy water, evaluated after 13 days
Procedure, shortened: as §2

[18] = system: ryegrass, Italian (italian ryegrass, Lolium multiflorum); assay: Test A preemergence soil spray, visual injury rating 0-100; conditions: 10 days, 0 = no effect, 100 = complete control
Procedure, shortened: as §1

[19] = system: oat, wild (wild oat, Avena fatua); assay: as above; conditions: 10 days, 0 = no effect, 100 = complete control
Procedure, shortened: as §1

[20] = system: corn (Zea mays); assay: as above; conditions: 10 days, 0 = no effect, 100 = complete control
Procedure, shortened: as §1

[21] = system: kochia (Bassia scoparia); assay: as above; conditions: 10 days, 0 = no effect, 100 = complete control
Procedure, shortened: as §1

[22] = system: blackgrass (Alopecurus myosuroides); assay: as above; conditions: 10 days, 0 = no effect, 100 = complete control
Procedure, shortened: as §1

[23] = system: ragweed (common ragweed, Ambrosia artemisiifolia); assay: as above; conditions: 10 days, 0 = no effect, 100 = complete control
Procedure, shortened: as §1

[24] = system: soybean (Glycine max); assay: as above; conditions: 10 days, 0 = no effect, 100 = complete control
Procedure, shortened: as §1

[25] = system: green foxtail (Setaria viridis); assay: as above; conditions: 10 days, 0 = no effect, 100 = complete control
Procedure, shortened: as §1

[26] = system: wheat (Triticum aestivum); assay: as above; conditions: 10 days, 0 = no effect, 100 = complete control
Procedure, shortened: as §1

[27] = system: palmer (palmer amaranth, palmer pigweed, Amaranthus palmeri); assay: as above; conditions: 10 days, 0 = no effect, 100 = complete control
Procedure, shortened: as §1

[28] = system: barnyardgrass (Echinochloa crus-galli); assay: as above; conditions: 10 days, 0 = no effect, 100 = complete control
Procedure, shortened: as §1

[29] = 31 g ai/ha, postemergence, 0 = no effect, 100 = complete control
[30] = Postemergence, 125 g ai/ha, 0 is no effect, 100 is complete control

COC(=O)C1CC(NC(=O)C2(C)CN(c3cc(F)cc(F)c3)C(=O)O2)CO1 (stereo not shown) [Compound 29]
Ryegrass, Italian plant response rating (0-100) [1, 29]: 50 | Ryegrass, Italian plant response rating (0 to 100 scale) [1, 30]: 90 | Oat, Wild plant response rating (0-100) [2, 29]: 80 | Oat, Wild plant response rating (0 to 100 scale) [2, 30]: 90 | Corn plant response rating (0-100) [3, 29]: 0 | Corn plant response rating (0 to 100 scale) [3, 30]: 70 | Kochia plant response rating (0-100) [4, 29]: 20 | Kochia plant response rating (0 to 100 scale) [4, 30]: 40 | Blackgrass plant response rating (0-100) [5, 29]: 90 | Blackgrass plant response rating (0 to 100 scale) [5, 30]: 90 | Ragweed plant response rating (0-100) [6, 29]: 30 | Ragweed plant response rating (0 to 100 scale) [6, 30]: 30 | Galium plant response rating (0-100) [7, 29]: 50 | Galium plant response rating (0 to 100 scale) [7, 30]: 80 | Horseweed plant response rating (0-100) [8, 29]: 0 | Horseweed plant response rating (0 to 100 scale) [8, 30]: 20 | Soybean plant response rating (0-100) [9, 29]: 0 | Soybean plant response rating (0 to 100 scale) [9, 30]: 50 | Foxtail, Green plant response rating (0-100) [10, 29]: 0 | Foxtail, Green plant response rating (0 to 100 scale) [10, 30]: 80 | Wheat plant response rating (0-100) [11, 29]: 80 | Wheat plant response rating (0 to 100 scale) [11, 30]: 90 | Amaranth, Palmer plant response rating (0-100) [12, 29]: 0 | Amaranth, Palmer / Pigweed, Palmer plant response rating (0 to 100 scale) [12, 30]: 60 | Barnyardgrass plant response rating (0-100) [13, 29]: 10 | Barnyardgrass plant response rating (0 to 100 scale) [13, 30]: 80 | Plant response rating, Rice (0 to 100 scale, 0 is no effect and 100 is complete control) [14]: 0 | Plant response rating, Ducksalad (0 to 100 scale, 0 is no effect and 100 is complete control) [15]: 0 | Plant response rating, Barnyardgrass (0 to 100 scale, 0 is no effect and 100 is complete control) [16]: 0 | Plant response rating, Sedge, Umbrella (0 to 100 scale, 0 is no effect and 100 is complete control) [17]: 0 | Ryegrass, Italian plant response rating (0-100) ([18]; 31 g ai/ha): 0 | Ryegrass, Italian plant response rating (0 to 100 scale) ([18]; 125 g ai/ha): 30 | Oat, Wild plant response rating (0-100) ([19]; 31 g ai/ha): 0 | Oat, Wild plant response rating (0 to 100 scale) ([19]; 125 g ai/ha): 60 | Corn plant response rating (0-100) ([20]; 31 g ai/ha): 0 | Corn plant response rating (0 to 100 scale) ([20]; 125 g ai/ha): 0 | Kochia plant response rating (0-100) ([21]; 31 g ai/ha): 0 | Kochia plant response rating (0 to 100 scale) ([21]; 125 g ai/ha): 0 | Blackgrass plant response rating (0-100) ([22]; 31 g ai/ha): 0 | Blackgrass plant response rating (0 to 100 scale) ([22]; 125 g ai/ha): 50 | Ragweed plant response rating (0-100) ([23]; 31 g ai/ha): 0 | Ragweed plant response rating (0 to 100 scale) ([23]; 125 g ai/ha): 0 | Soybean plant response rating (0-100) ([24]; 31 g ai/ha): 0 | Soybean plant response rating (0 to 100 scale) ([24]; 125 g ai/ha): 0 | Foxtail, Green plant response rating (0-100) ([25]; 31 g ai/ha): 0 | Foxtail, Green plant response rating (0 to 100 scale) ([25]; 125 g ai/ha): 0 | Wheat plant response rating (0-100) ([26]; 31 g ai/ha): 0 | Wheat plant response rating (0 to 100 scale) ([26]; 125 g ai/ha): 80 | Amaranth, Palmer plant response rating (0-100) ([27]; 31 g ai/ha): 0 | Amaranth, Palmer plant response rating (0 to 100 scale) ([27]; 125 g ai/ha): 0 | Barnyardgrass plant response rating (0-100) ([28]; 31 g ai/ha): 0 | Barnyardgrass plant response rating (0 to 100 scale) ([28]; 125 g ai/ha): 20
